Patent US6825001B2, “DNA molecules and protein displaying improved triazine compound degrading ability” (Regents of the University of Minnesota, priority 1997, dated 2004)
Entries after “also recorded” stand apart in the source; their conditions may differ.

Assays:
[1] = tested on: E. coli DH5α (pMD1 or pMD2); assay: effect of ammonium chloride on atrazine degradation, E. coli clones; assay type: cell-based
Source text: (§1) Therefore, it was not necessary to use media free of exogenous ammonia in the screening assays.

[2] = tested on: Pseudomonas species strain ADP; assay: effect of ammonium chloride on atrazine clearing on solid media, Pseudomonas; assay type: cell-based; conditions: solid media with 500 ppm atrazine, 2 weeks, 28° C. or 37° C.
Source text: as §1

[3] = TERBUTHYLAZINE-degrading activity of AtzA homologs; assay type: biochemical; conditions: compared with wild-type enzyme
Protocol: TERBUTHYLAZINE was incorporated in solid LB medium at a final concentration of about 400-500 μg/ml to produce an opaque suspension of sample particles in the clear agar. […] HPLC analysis was performed with a Hewlett Packard HP 1090 Liquid Chromatograph system equipped with a photodiode array detector and interfaced to an HP 79994A Chemstation. TERBUTHYLAZINE and its metabolites were resolved by using an analytical C^18 reverse-phase Nova-Pak HPLC column (4 μm-diameter spherical packing, 150 by 3.9 mm; Waters Chromatography, Milford, Mass.) and an acetonitrile (ACN) gradient, in water, at a flow rate of 1.0 ml min^−1. Linear gradients of 0 to 6 min, 10 to 25% ACN; 6 to 21 min, 25 to 65% ACN; 21 to 23 min, 65 to 100% ACN; and 23 to 25 min, 100% ACN were used. Spectral data of the column eluent were acquired between 200 and 400 nm (12-nm bandwidth per channel) at a sampling frequency of 640 ms. Spectra were referenced against a signal of 500 nm.
Sample 1 is a control sample without enzyme. […] Sample 3 employed the T7 homolog (SEQ ID NO:6) and Sample 4 employed the A7 homolog (SEQ ID NO:5). Results were determined by HPLC as described above. FIG. 8(a) provides the percentage of TERBUTHYLAZINE remaining after a 15 minute exposure to homologs A7, A11, and T7. Samples 1-10 refer to the effect of homolog activity in the presence of 50 uM of: Manganese (1); Mangnesium (2), EDTA (3); cobalt (4); zinc (5); iron (6); copper (7); nickel (8); no metal (9); or no eznyme (10). FIG. 8(b) provides the relative amount of hydroxyterbuthylazine as a measure of TERBUTHYLAZINE degradation for homologs A7 (solid bar), A11 (hatched bar), or T7 (open bar) in the presence or absence of additives 1-10 (supra).

[4] = atrazine-degrading activity of AtzA homologs compared with wild type; conditions: compared with wild-type AtzA or parent homolog
Protocol: Serial dilutions of the transformation reaction were plated onto LB plates containing 50 μg/ml ampicillin, the remainder of the transformation was stored in 25% glycerol and frozen at −80° C.
Environ. Microbiol., 61, 1451-1457 (1995), at a final concentration of 500 μg/ml to produce an opaque suspension of small particles in the clear agar. […] Positive colonies that most rapidly formed the largest clear zones were selected initially for further analysis. The (approximately) 40 best colonies were picked, pooled, grown in the presence of 50 μg/ml ampicillin and plasmid prepared from them.
Enzyme Kinetics. […] The reactions were stopped by boiling the reaction tubes at specific times, the addition of 500 μl acetonitrile and rapid freezing at −80° C. Thawed samples were centrifuged at 14,000 rpm for 10 minutes, the supernatants were filtered through a […] filter, and placed into crimp-seal HPLC vials. HPLC analysis was done as described above.

| Molecule | ammonium chloride tolerance relative to wild type ([1]; E. coli clones vs Pseudomonas strain ADP) | effect of inorganic nitrogen source on atrazine degradation (in words) ([1]; atzA fragments expressed in E. coli) | ammonium chloride concentration at which atrazine degradation was still observed ([1]; solid media with atrazine) | ammonium chloride concentration sufficient to inhibit visible clearing [2] | TERBUTHYLAZINE degradation activity (in words) [3] | atrazine degradation activity (in words) [4] |
| --- | --- | --- | --- | --- | --- | --- |
| Cl.N [ammonium chloride] | 40-80 fold | unaffected | ≤ 48 mM | 0.6 to 1.2 mM | – | – |
| A7: AtzA homolog, gene SEQ ID NO:3, protein SEQ ID NO:5 (protein) ASMVTLTPLFSFSLLNCTRKASRSVMSASSWLVTCGMTTQLRCRFFDGIISALRRVTHYWRHIMQTLSIQHGTLVTMDQYRRVLGDSWVHVQDGRIVALGVHAESVPPPADRVIDARGKVVLPGFINAHTHVNQILLRGGPSHGRQFYDWLFNVVYPGQKAMRPEDVAVAVRLYCAEAVRSGITTINENADSAIYPGNIEAAMAVYGEVGVRVVYARMFFDRMDGRIQGYVDALKARSPQVELCSIMEGTAVAKDRITALSDQYHGTAGGRISVWPAPATTTAVTVEGMRWAQAFARDRAVMWTLHMAESDHDERIHGMSPAEYMECYGLLDERLQVAHCVYFDRKDVRLLHRHNVKVASQVVSNAYLGSGVAPVPEMVERGMAVGIGTDNGNSNDSVNMIGDMKFMAHIHRAVHRDADVLTPEKILEMATIDGARSLGMDHEIGSIETGKRADLILLDLRHPQTTPHHHLAATIVFQAYGNEVDTVLIDGNVVMENRRLSFLPPERELAFLEEAQSRATAILQRANMVANPAWRSLEMTPLLHPPPLEEIAAILARLGLGGGHDLDGYRIAMNAALPSFARVESLVGEGRLRAPASRRSE | – | – | – | – | better than the wild-type enzyme; also recorded: enhanced TERBUTHYLAZINE degradation activity | enhanced atrazine degradation activity |
